Holding throughout (test): NCI tumour cell line growth inhibition, 48 h
Test [1] concerns MOLT-4 leukemia.
Test [2] concerns A549 NSCLC.
For test [3], the system named is T-47D breast.
Test [4] relates to SN12C renal.
Test [5] relates to U251 CNS.
Test [6] concerns UACC-62 melanoma.
In test [7] the test system is HOP-92 NSCLC.
For test [8], the system named is M14 melanoma.
Test [9] deals with SK-MEL-5 melanoma.
The subject of test [10] is NCI-H226 lung.

Structures are written as SMILES. Values joined by “and” are separate entries in the source; they are usually repeats but may differ in a detail not shown here. Equal entries are not always repeated.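 Where inhibition never reached the appropriate level, the endpoint shown equals the highest concentration tested. Otherwise, values were interpolated linearly from a five-concentration, 48-hour dose response in 96-well plates. GI50 = concentration required for 50% inhibition of growth. TGI denotes the concentration required for complete inhibition of growth.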

Consider `N=C(c1cccs1)C1(N2CCCCC2)CCCCC1`, for which the TGI in [1] worked out at 30.9 µM; in [2], 60.2 µM; in test [3], 27.1 µM; in [4], 88.6 µM; in test [5] it was 30 µM; in [6] it was 31 µM. Further, the TGI in [7] was 37.5 µM; in test [8] it was 47.4 µM.

For `Cc1cc(O)c(C(C)C)cc1N=Cc1ccccc1O`, the TGI amounted to 43 µM in test [2]; 18.8 µM in test [9]; 12.2 µM in test [4]; 14.6 µM in test [5]; 20.4 µM in test [10]; 21.7 µM in [6]. For the same compound, the TGI in [7] was 1.82 µM; in test [8], 31.4 µM.

Regarding `O=P1(c2ccccc2)C2=CCC=CC2C(c2ccccc2)N1Cc1ccccc1` (stereo not drawn), the TGI in test [1] turned out to be 38.7 µM; in [2] it was 32.3 µM; in [9], 29.8 µM; in [3], 36.8 µM; in test [4], 31.5 µM; in [5] it was 30.7 µM. Moreover, the TGI in [6] came to 21.7 µM; in test [7] it was 26.6 µM; in test [8], 32.3 µM.

As for `O=[N+]([O-])c1cc(Cl)ccc1S(=O)(=O)N1CCCc2cc(Cl)ccc21`, the TGI in [1], in test [2], in test [9], in [4], in [10] and in [6] was > 100 µM each time. Moreover, the TGI in [7] and in test [8] was > 100 µM in each case.

Consider `Cc1ncc([N+](=O)[O-])n1CCNC(=O)CCCCCn1ccnc1[N+](=O)[O-]`, for which the TGI in [1], in test [2], in test [9], in test [3], in test [4] and in test [5] was > 100 µM in each case. The TGI in [10], in test [6] and in test [8] was > 100 µM throughout.

As to `N#C/C(=C\c1ccccc1Br)C(=O)c1ccccc1`, the TGI in [1] was 52.8 µM; in test [2], > 70 µM; in test [9], 34.6 µM; in test [4] it was > 76.6 µM; in test [5], > 71.4 µM; in test [10], > 78.2 µM. In addition, the TGI in test [6] is 87.5 µM; in test [7] it was > 100 µM; in [8], > 68.1 µM.

On to `CCN(CC)CCNc1ccc2ncn3c4cc(=O)ccc4c(O)c1c23`, for which the TGI in [1] was 6.15 µM; in test [2] it was 12.1 µM; in [9], 12.1 µM; in [4] it was 15.7 µM; in test [5], 6.59 µM; in [10], 11.4 µM. In addition, the TGI is 14 µM in [6], 6.78 µM in [7] and 14.4 µM in test [8].

On to `CC1CN=C(c2ccc(COc3ccc(C4=NCC(C)N4)cc3)cc2)N1` (stereo not drawn), for which the TGI in test [1], in test [2], in test [9], in [3], in [4] and in test [5] was > 100 µM throughout. Moreover, the TGI in test [6], in test [7] and in test [8] was > 100 µM throughout.

Consider `CCCCCCCCCCSCC(CO)NC(=O)/C=C/c1c(C)[nH]c(=O)[nH]c1=O` (stereo not drawn), for which the TGI in test [1] was 16.8 µM and 9.45 µM; in [2], > 50 µM; in test [9], 8.06 µM and 13.1 µM; in [4] it was 17.7 µM and > 32.8 µM; in test [5], 3.7 µM and 10.7 µM; in test [10], > 50 µM and 12.4 µM. Moreover, the TGI in [6] is 7.71 µM and 9.48 µM; in [7] it was 3.72 µM and > 20.3 µM. Besides, the GI50 was > 44.4 µM in test [2] and 2.18 µM in test [10].

For `Cc1ccc2c(=O)c(-c3n[nH]c(=S)s3)c[nH]c2n1`, the TGI in test [1], in [2], in test [9], in [3], in test [4] and in test [5] was > 100 µM each time. The TGI in test [10], in test [6] and in test [8] was > 100 µM in each case.

As to `COc1ccccc1NS(=O)(=O)c1ccc2ncn(NS(=O)(=O)c3ccc(Cl)cc3)c(=O)c2c1`, the TGI in test [1], in test [2], in test [4], in test [5], in test [10] and in test [6] was > 100 µM in each case. For the same compound, the TGI in test [7] and in [8] was > 100 µM each time.

As for `O=C1C[C@H](c2ccc(O)c(O)c2)Oc2cc(O)cc(O)c21`, the TGI in [1], in [2], in test [9], in [4], in [5] and in [10] was > 100 µM each time. The TGI in test [6], in test [7] and in test [8] was > 100 µM each time.

Turning to `O=C(O)CC(O)(C(=O)O)C(O)C(=O)O` (stereo not drawn), the TGI in test [1], in [2], in test [9], in [3], in [4] and in test [5] was > 1000 µM throughout. Also, the TGI in [10], in test [6] and in test [8] was > 1000 µM each time.

Regarding `CN1C(=O)N(C)C2(CCN(CCCCCCF)CC2)C1=O`, the TGI in test [2], in [9], in test [3], in [4], in test [5] and in [10] was > 100 µM throughout. Also, the TGI in test [6] and in [8] was > 100 µM in each case.

For `COc1ccc(N2C(=O)C3CC4=CC(=O)C[C@H]4[C@H]32)cc1` (stereo partly drawn), the TGI in test [1], in [2], in [3], in test [4], in test [5] and in test [10] was > 100 µM each time. For the same compound, the TGI in [6] and in test [8] was > 100 µM each time.

On to `COc1cc2c(c(OC)c1OC)-c1ccc(SC)cc1C(=O)CC2`, for which the TGI in test [1], in test [2], in [9], in test [3], in test [4] and in test [5] was > 100 µM each time. Also, the TGI in [6], in test [7] and in test [8] was > 100 µM each time.

As to `COC(=O)C1C2CC3C(OC(=O)C31)C2OC(=O)[C@](OC)(c1ccccc1)C(F)(F)F` (stereo partly drawn), the TGI in test [1], in test [2], in test [9], in test [4], in test [5] and in [10] was > 100 µM in each case. Moreover, the TGI in test [7] and in [8] was > 100 µM in each case.

For the compound `O=C1NC2(C=Cc3c(ccc4ccccc34)O2)Oc2ccccc21` (stereo not drawn), the TGI in test [1] is 30.5 µM; in test [2], > 100 µM; in [9], 29.5 µM; in [4], 63.4 µM; in [5], 62.5 µM; in test [10] it was 74.1 µM. For the same compound, the TGI in test [6] and in [8] was > 100 µM each time.

As for `CC[C@H](C)C1=C(OC(C)=O)[N@+]2([O-])Oc3ccc(-c4c(OC(C)=O)c(OC(C)=O)c(-c5ccc(OC(C)=O)cc5)c(OC(C)=O)c4OC(C)=O)cc3O[C@]2([C@@H](C)CC)C(=O)N1OC(C)=O`, the TGI was 36 µM in test [1]; 41.6 µM in test [2]; 22.5 µM in test [9]; 32 µM in [3]; > 50 µM in test [4]; > 50 µM in [5]. Further, the TGI is > 50 µM in test [10], 17.7 µM in test [6] and > 50 µM in test [8].

With `CSC1=C(C(=O)Nc2ccccc2)C(N)=NC1=O`, the TGI in test [1], in test [2], in test [9], in [3], in [4] and in [5] was > 100 µM in each case. Also, the TGI in test [10] and in [6] was > 100 µM throughout.

Turning to `O=C(NN=C1CCCCC1)NN=C1CCCCC1`, the TGI in test [1], in [9], in [3], in test [4], in [5] and in test [6] was > 100 µM each time. Moreover, in [8], the TGI was > 100 µM.

As for `C[N+](C)(N)c1nc(N)c(C#N)c(C#N)c1C#N`, the TGI in [1], in test [2], in test [9], in test [3], in [4] and in test [5] was > 10 µM in each case. Also, the TGI in [10], in [6] and in [8] was > 10 µM each time.

`c1ccc(C2[C@@H]3CCCc4ccccc4C3=NN2c2ccccc2)cc1` (stereo partly drawn): the TGI in test [1] is > 100 µM; in test [2], > 100 µM; in [9] it was 47.1 µM; in test [4] it was > 100 µM; in [5], > 100 µM; in [10], > 100 µM.

Take `CC(C)c1cccc(C(C)C)c1OS(=O)(=O)NC(=O)OC(C(F)(F)F)C(F)(F)F`: the TGI in test [1] was 55.6 µM; in test [2], > 100 µM; in test [9], > 100 µM; in [4], > 100 µM; in test [5], > 100 µM; in [10], > 100 µM. Also, the TGI in test [7] amounted to 59.9 µM; in test [8], 64 µM.

For the compound `CC(=O)CC(=O)/C=C/c1cccs1`, the TGI in test [1], in test [2], in [9], in test [4], in [5] and in test [10] was > 100 µM throughout. Further, the TGI in test [6] and in test [8] was > 100 µM throughout.

For `CC(=O)n1ccc2c(Cl)ncnc21`, the TGI in test [1], in test [2], in test [9], in test [4], in [5] and in test [6] was > 100 µM each time. Also, the TGI in test [7] and in [8] was > 100 µM each time.

`c1ccc(CCn2cncn2)cc1`: the TGI in test [1], in test [2], in test [9], in test [4], in test [5] and in [10] was > 100 µM in each case. In addition, the TGI in test [6], in test [7] and in test [8] was > 100 µM throughout.

On to `Brc1cccc[n+]1-c1ccc2cc(-[n+]3ccccc3Br)ccc2c1`, for which the TGI in test [2] was > 100 µM; in test [9], > 100 µM; in [3] it was 58.4 µM; in test [4], > 100 µM; in test [5], 29.8 µM; in [10], > 100 µM. Also, the TGI in test [6] and in [8] was > 100 µM each time.

As for `C/C=C1\CC(C(=O)OCC)CCCCCCCCCCC1=O` (stereo not drawn), the TGI in [1], in test [2], in [9], in [3], in test [4] and in test [5] was > 100 µM in each case. In addition, the TGI in [10], in test [6] and in test [8] was > 100 µM throughout.

As for `COC[C@@H](Cc1ccc(OC)c(OC)c1)[C@@H](COC)Cc1ccc(OC)c(OC)c1`, the TGI in test [1], in test [2], in [9], in test [4], in [5] and in [6] was > 100 µM in each case. Moreover, the TGI in test [7] and in test [8] was > 100 µM each time.

With `CCC1(O)CC(OC2CC(N(C)C)C(OC3CC(O)C(OC4CCC(=O)C(C)O4)C(C)O3)C(C)O2)c2c(O)c3c(c(O)c2C1C(=O)OC)C(=O)c1cccc(O)c1C3=O` (stereo not drawn), the TGI was 0.0261 µM in test [9]; 0.175 µM in [4]; 1.42 µM in test [5]; 0.0235 µM in [6]; 0.763 µM and 2.17 µM in [7]; 0.013 µM in test [8].
